{
  "source": "patent US20100183600A1",
  "about": "“RAF Inhibitors and Their Uses” (ARQULE, INC., priority 2008, published 2010)",
  "key": {"NCI-H1299": {"test_system": "NCI-H1299", "assay": "Cell growth inhibition assay (MTS)", "type": "cell-based", "conditions": "Homo sapiens; NCI-H1299, non-small cell lung carcinoma", "procedure,_shortened": "(§1)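 Growth inhibition was measured as loss of dehydrogenase activity: cells grown in DMEM with 10% fetal bovine serum received compound for 72 hours before a 4 hr MTS/PMS step and reading at 492 nm.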"}, "K562": {"test_system": "K562", "assay": "Cell growth inhibition assay (MTS)", "type": "cell-based", "conditions": "Homo sapiens; K562, CML", "procedure,_shortened": "as §1"}},
  "data": [
    {"smiles": "Cn1ccc(S(=O)(=O)N2CCC[C@@H](Nc3nccc(-c4c(-c5cccc(OCOP(=O)(O)O)c5)nc5occn45)n3)C2)n1", "note": "[Compound 19, (R)-(3-(5-(2-(1-(1-methyl-1H-pyrazol-3-ylsulfonyl)piperidin-3-ylamino)pyrimidin-4-yl)imidazo[2,1-b]oxazol-6-yl)phenoxy)methyl dihydrogen phosphate]", "values": [
      {"measurement": "GI50", "setting": "NCI-H1299", "result": 6.38, "unit": "µM"},
      {"measurement": "GI50", "setting": "K562", "result": 9.86, "unit": "µM"}
    ]}
  ]
}
